Measurements reported in article PMC8757511 (ACS Medicinal Chemistry Letters, 2021).
In brackets after ≈: the same amount, converted by molar mass.

Tests used:
[1] = system: M. tuberculosis strain, H37Ra (ATCC 25177); experiment: microbe, parasite or virus in culture; assay type: cell-based, Mycobacterium tuberculosis; details: for MIC: Mycobacterium tuberculosis, ATCC25177|H37RA, read-out: Mtb MIC
PknB [2] = target: T1, PknB (Mycobacterium tuberculosis, UniProt P9WI81); experiment: biochemical; assay type: biochemical
Target sequence in this assay (P9WI81 1-331 limits assumed): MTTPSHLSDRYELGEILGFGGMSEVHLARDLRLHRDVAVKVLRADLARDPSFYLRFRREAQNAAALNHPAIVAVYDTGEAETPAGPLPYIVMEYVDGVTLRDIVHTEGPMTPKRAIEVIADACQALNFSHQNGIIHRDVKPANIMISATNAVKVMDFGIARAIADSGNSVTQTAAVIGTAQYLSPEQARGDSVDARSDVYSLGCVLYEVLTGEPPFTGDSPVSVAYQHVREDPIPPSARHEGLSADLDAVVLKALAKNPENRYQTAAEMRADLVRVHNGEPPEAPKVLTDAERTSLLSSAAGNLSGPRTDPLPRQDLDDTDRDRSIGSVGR

PknB [3] = target: T1, PknB; experiment: biochemical; assay type: binding
Target sequence in this assay (P9WI81 1-331 limits assumed): as above

Cdk2-Cyclin A = Cdk2-Cyclin A (Homo sapiens, UniProt P24941); experiment: biochemical; assay type: biochemical
[4] = system: Zebrafish (Danio rerio) embryos; details: 5 days
physchem = details: pH 7.4, LogD7.4, pH 7.4
[5] = system: 453 human kinases (403 wild-type and 50 mutant); assay type: binding; details: 10 μM, KinomeSCAN
[6] = system: THP-1 human macrophage cell line
PknB [7] = target: T1, PknB; assay type: binding; details: DiscoverX Kd
Target sequence in this assay (P9WI81 whole entry): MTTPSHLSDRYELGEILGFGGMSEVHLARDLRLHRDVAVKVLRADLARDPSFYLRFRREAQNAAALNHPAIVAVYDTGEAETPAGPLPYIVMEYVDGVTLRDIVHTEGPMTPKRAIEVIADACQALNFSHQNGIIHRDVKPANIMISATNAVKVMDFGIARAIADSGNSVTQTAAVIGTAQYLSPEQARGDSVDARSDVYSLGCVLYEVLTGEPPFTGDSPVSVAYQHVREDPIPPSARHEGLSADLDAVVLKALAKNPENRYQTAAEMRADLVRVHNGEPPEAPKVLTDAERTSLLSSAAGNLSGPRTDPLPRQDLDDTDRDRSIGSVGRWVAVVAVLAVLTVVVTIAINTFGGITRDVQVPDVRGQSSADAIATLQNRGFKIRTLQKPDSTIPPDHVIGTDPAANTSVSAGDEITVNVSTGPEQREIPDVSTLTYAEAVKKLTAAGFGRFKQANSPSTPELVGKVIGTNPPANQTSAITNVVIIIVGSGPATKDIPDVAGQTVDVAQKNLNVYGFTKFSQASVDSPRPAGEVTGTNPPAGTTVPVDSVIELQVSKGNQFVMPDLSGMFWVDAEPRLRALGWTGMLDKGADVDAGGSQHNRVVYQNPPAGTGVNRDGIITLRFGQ

CN1CCN(c2ccc(Nc3nccc(-c4cccnc4)n3)cc2C(F)(F)F)CC1 [Compound 4]
worse Mtb MIC than 1 [1]: 2–4 fold

CN1CCN(c2ccc(Nc3nccc(-c4ccncc4)n3)cc2C(F)(F)F)CC1 [Compound 5]
IC50 (PknB [2]): 2.1 µM
Ki (PknB [2]): 0.58 µM
Kd (PknB [3]): 0.078 µM
IC50 (Cdk2-Cyclin A): 4.6 µM
worse Mtb MIC than 1 [1]: 2–4 fold
MIC [1]: 50 µM (≈ 20.7 µg/mL)
% D. rario survival @ 5 μM [4]: 30%
logD (physchem): 3.57

CN1CCN(c2ccc(Nc3nccc(-c4ccnc(Cl)c4)n3)cc2C(F)(F)F)CC1 [Compound 6]
% D. rario survival @ 5 μM [4]: ~100%

CNc1cc(-c2ccnc(Nc3ccc(N4CCN(C)CC4)c(C(F)(F)F)c3)n2)ccn1 [Compound 8]
loss of PknB activity relative to 1 (PknB [2]; relative to 1): 6 fold
reduction in Cdk2 biochemical inhibition relative to 1 (Cdk2-Cyclin A): 28 fold

CN1CCN(c2ccc(Nc3nccc(-c4ccccc4)n3)cc2C(F)(F)F)CC1 [Compound 9]
reduction in Cdk2 biochemical inhibition relative to 1 (Cdk2-Cyclin A): greater than 28 fold
selectivity score (S-score) at 1% of control (S(1)) [5]: 0.084
% D. rario survival @ 5 μM [4]: ~100%

CN1CCN(c2ccc(Nc3nccc(-c4ccc(Cl)cc4)n3)cc2C(F)(F)F)CC1 [Compound 11]
reduction in Cdk2 biochemical inhibition relative to 1 (Cdk2-Cyclin A): greater than 28 fold

Cc1ccc(-c2ccnc(Nc3ccc(N4CCN(C)CC4)c(C(F)(F)F)c3)n2)cc1 [Compound 12]
reduction in Cdk2 biochemical inhibition relative to 1 (Cdk2-Cyclin A): greater than 28 fold
MIC [1]: ≤ 19 µM
% D. rario survival @ 5 μM [4]: 0%

CN1CCN(c2ccc(Nc3nccc(-c4cccc(Cl)c4)n3)cc2C(F)(F)F)CC1 [Compound 16]
reduction in Cdk2 biochemical inhibition relative to 1 (Cdk2-Cyclin A): greater than 28 fold
MIC [1]: ≤ 19 µM
improvement in cytotoxicity over 1 ([6]; THP-1, relative to 1): > 2 log unit

CN1CCN(c2ccc(Nc3nccc(-c4cccc([N+](=O)[O-])c4)n3)cc2C(F)(F)F)CC1 [Compound 19]
affinity for PknB vs GSK3β, mTOR, and Pim1 (PknB [7]): > 100 fold
selectivity score (S-score) at 1% of control (S(1)) [5]: 0.12
MIC [1]: ≤ 19 µM
% D. rario survival @ 5 μM [4]: 0%

CN1CCN(c2ccc(Nc3nccc(-c4ccc5ccccc5c4)n3)cc2C(F)(F)F)CC1 [Compound 20]
loss in PknB activity relative to 19 (PknB [2]): 3 fold
lower MIC than inhibitor 19 [1]: 2 fold
improvement in THP-1 cytotoxicity relative to 1 ([6]; relative to 1): > 60 fold
% D. rario survival @ 5 μM [4]: ~100%
